One experiment deals with NCI-H358 (K-Ras G12C). The experiment in a line: CellTiter-Glo cell viability assay, 5-day treatment. It counts as cell-based. The following applies: Homo sapiens, NCI-H358, 120 h, 5-day treatment; read-out: H358 Cell Viability assay data (K-Ras G12C, IC50). In a few lines:
(§1)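 Viability is read as luminescence on day 5 after direct compound addition to plated cells, following about 30 minutes' room-temperature equilibration. Each signal is scaled to mean DMSO as 100%.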
For orientation: ATP-based viability assays read luminescence as a measure of living cells.

The subject of a further experiment is Capan-1 (K-Ras G12V). Described as above. It counts as cell-based. Conditions: Homo sapiens, CAPAN-1, 120 h, 5-day treatment; read-out: Capan-1 Cell Viability assay data (K-Ras G12V, IC50). In a few lines: as §1
The next experiment addresses KRAS G12S (Homo sapiens, UniProt P01116+P62937, G12S). Description: Disruption of BRAF RBD interaction with Ras (FRET / MOA assay, with Cyclophilin A). It counts as biochemical. In a few lines: (§2)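 Measured via TR-FRET after 3 h at 25 °C with compound (30 μM top, threefold serial steps, ten concentrations) plus K-Ras, Cyclophilin A and BRAF RBD, followed by 1.5 h with anti-His europium (10 nM) and anti-GST allophycocyanin (50 nM). Signal loss versus DMSO gave IC50.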

For the next experiment, the target named is KRAS G12C (Homo sapiens, UniProt P01116+P62937, G12C). Described as above. It counts as biochemical. In a few lines: as §2
Sequence of KRAS G12C (P01116 1-169 isoform P01116-2 G12C): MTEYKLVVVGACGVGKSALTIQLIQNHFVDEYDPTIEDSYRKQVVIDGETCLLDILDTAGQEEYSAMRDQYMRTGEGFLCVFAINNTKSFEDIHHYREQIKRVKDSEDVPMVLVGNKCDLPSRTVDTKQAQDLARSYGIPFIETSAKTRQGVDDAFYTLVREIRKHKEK
Sequence of KRAS G12C (P62937 whole entry): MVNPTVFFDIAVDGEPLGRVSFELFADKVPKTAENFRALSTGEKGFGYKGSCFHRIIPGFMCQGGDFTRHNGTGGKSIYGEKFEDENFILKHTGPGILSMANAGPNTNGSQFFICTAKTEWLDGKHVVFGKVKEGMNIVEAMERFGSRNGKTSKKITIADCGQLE
Another experiment addresses NRAS G12C (Homo sapiens, UniProt P01111+P62937, G12C). The description is as above. Type of experiment: biochemical.
The next experiment has as its target KRAS G13D (Homo sapiens, UniProt P01116+P62937, G13D). The experiment is described as above. Type of experiment: biochemical. In a few lines:
as §2

The next experiment concerns the target KRAS G13C (Homo sapiens, UniProt P01116+P62937, G13C). The experiment is described as above. It counts as biochemical. In a few lines:
as §2

The target in another experiment is KRAS G12V (Homo sapiens, UniProt P01116+P62937, G12V). Described as above. Type of experiment: biochemical. In a few lines:
as §2

For another experiment, the target named is KRAS G12D (Homo sapiens, UniProt P01116+P62937, G12D). The experiment is described as above. Type of experiment: biochemical. In a few lines:
as §2

A further experiment concerns the target KRAS WT (Homo sapiens, UniProt P01116+P62937). The description is as above. Type of experiment: biochemical. In a few lines: as §2
[1] abbreviates: read-out: KRAS G12S FRET data, IC50.
Where [2] appears, read: read-out: KRAS G12C FRET data, IC50.
The mark [3] stands for this setting: NRAS G12C, read-out: NRAS G12C FRET data IC50.
The mark [4] stands for this setting: KRAS G13D, read-out: KRAS G13D FRET data IC50.
Where [5] appears, read: read-out: KRAS G13C FRET data, IC50.
[6] abbreviates: KRAS G12V, read-out: KRAS G12V FRET data IC50.
[7] abbreviates: read-out: KRAS G12D FRET data, IC50.
The mark [8] stands for this setting: KRAS WT, read-out: KRAS WT FRET data IC50.

Each structure is given as a SMILES string. Where two headings read alike, the source gives them in different places. Some results are limits rather than exact numbers.

Sequence of KRAS G12D (P01116 1-169 isoform P01116-2 G12D limits assumed): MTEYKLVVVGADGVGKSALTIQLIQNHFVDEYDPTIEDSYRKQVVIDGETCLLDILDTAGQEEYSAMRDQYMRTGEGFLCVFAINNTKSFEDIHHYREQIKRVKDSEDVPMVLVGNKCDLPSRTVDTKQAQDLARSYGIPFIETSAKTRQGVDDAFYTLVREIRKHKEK
Sequence of KRAS G12D (P62937 whole entry): as the sequence (P62937 whole entry) above
Sequence of KRAS WT (P01116 1-169 isoform P01116-2 limits assumed): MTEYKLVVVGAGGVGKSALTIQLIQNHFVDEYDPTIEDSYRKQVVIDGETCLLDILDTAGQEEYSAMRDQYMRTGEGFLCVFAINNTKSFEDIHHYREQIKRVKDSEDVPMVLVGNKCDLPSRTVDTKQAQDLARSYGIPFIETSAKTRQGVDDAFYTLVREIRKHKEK
Sequence of KRAS WT (P62937 whole entry): as the sequence (P62937 whole entry) above
Sequence of KRAS G13D (P01116 1-169 isoform P01116-2 G13D limits assumed): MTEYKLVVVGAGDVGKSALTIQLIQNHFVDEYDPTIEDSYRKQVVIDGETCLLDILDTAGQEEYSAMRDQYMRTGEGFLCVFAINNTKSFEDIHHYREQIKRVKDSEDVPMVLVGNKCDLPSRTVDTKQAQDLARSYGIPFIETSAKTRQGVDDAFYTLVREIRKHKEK
Sequence of KRAS G13D (P62937 whole entry): as the sequence (P62937 whole entry) above
Sequence of KRAS G13C (P01116 1-169 isoform P01116-2 G13C): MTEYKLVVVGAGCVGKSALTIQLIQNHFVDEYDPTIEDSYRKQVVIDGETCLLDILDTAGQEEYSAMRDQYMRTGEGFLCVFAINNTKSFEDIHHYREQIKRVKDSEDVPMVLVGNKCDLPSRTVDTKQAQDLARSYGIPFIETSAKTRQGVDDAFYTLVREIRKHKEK
Sequence of KRAS G13C (P62937 whole entry): as the sequence (P62937 whole entry) above
Sequence of KRAS G12S (P01116 1-169 isoform P01116-2 G12S limits assumed): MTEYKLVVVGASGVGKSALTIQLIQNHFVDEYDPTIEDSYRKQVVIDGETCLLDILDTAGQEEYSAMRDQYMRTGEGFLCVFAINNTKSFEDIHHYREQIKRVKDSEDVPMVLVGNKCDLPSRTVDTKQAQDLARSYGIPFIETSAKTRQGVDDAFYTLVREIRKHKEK
Sequence of KRAS G12S (P62937 whole entry): as the sequence (P62937 whole entry) above
Sequence of NRAS G12C (P01111 whole entry G12C): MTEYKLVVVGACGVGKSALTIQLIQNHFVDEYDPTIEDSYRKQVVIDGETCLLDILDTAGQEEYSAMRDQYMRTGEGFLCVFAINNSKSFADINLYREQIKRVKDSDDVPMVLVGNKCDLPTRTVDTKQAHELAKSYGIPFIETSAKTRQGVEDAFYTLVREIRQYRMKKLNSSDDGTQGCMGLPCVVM
Sequence of NRAS G12C (P62937 whole entry): as the sequence (P62937 whole entry) above
Sequence of KRAS G12V (P01116 1-169 isoform P01116-2 G12V limits assumed): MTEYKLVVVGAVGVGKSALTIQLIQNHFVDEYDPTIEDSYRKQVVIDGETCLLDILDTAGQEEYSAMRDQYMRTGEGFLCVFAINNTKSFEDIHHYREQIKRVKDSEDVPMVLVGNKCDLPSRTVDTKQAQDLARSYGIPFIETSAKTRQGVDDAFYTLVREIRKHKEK
Sequence of KRAS G12V (P62937 whole entry): as the sequence (P62937 whole entry) above

In general, IC50 refers to the point on the concentration scale where inhibition reaches its midpoint. Take `CCn1c(-c2cnccc2COC)c2c3cc(ccc31)-c1cc(O)cc(c1)C[C@H](NC(=O)[C@H](C(C)C)N(C)C(=O)[C@@H]1CCCN(C)C1)C(=O)N1CCC[C@H](N1)C(=O)OCC(C)(C)C2` [Example A259]: the IC50 in the experiment on NCI-H358 (K-Ras G12C) lay in the range of 1000 to 10000 nM; with Capan-1 (K-Ras G12V) it was 1000 to 10000 nM; at KRAS G12S (setting [1]) it was 100 to 1000 nM; at KRAS G12C (setting [2]), 100 to 1000 nM; on NRAS G12C (setting [3]) it was 100 to 1000 nM; at KRAS G13D (setting [4]), 100 to 1000 nM. The half-inhibitory concentration (IC50) lay within 100 to 1000 nM on KRAS G13C (setting [5]), 1000 to 10000 nM at KRAS G12V (setting [6]), 100 to 1000 nM on KRAS G12D (setting [7]) and 100 to 1000 nM on KRAS WT (setting [8]).
Take `CCn1c(-c2cnccc2COC)c2c3cc(ccc31)-c1cc(O)cc(c1)C[C@H](NC(=O)[C@H](C(C)C)N(C)C(=O)O[C@H]1CCOC1)C(=O)N1CCC[C@H](N1)C(=O)OCC(C)(C)C2` [Example A260]: the IC50 with NCI-H358 (K-Ras G12C) was 100 to 1000 nM; in the experiment on Capan-1 (K-Ras G12V) it was 1000 to 10000 nM; on KRAS G12S (setting [1]) it was 100 to 1000 nM; at KRAS G12C (setting [2]) it was 100 to 1000 nM; at NRAS G12C (setting [3]), 100 to 1000 nM; on KRAS G13D (setting [4]) it was 1000 to 10000 nM. In addition, the half-inhibitory concentration (IC50) was 1000 to 10000 nM at KRAS G13C (setting [5]), 1000 to 10000 nM on KRAS G12V (setting [6]), 1000 to 10000 nM at KRAS G12D (setting [7]) and 100 to 1000 nM at KRAS WT (setting [8]).
For `CCn1c(-c2cnccc2COC)c2c3cc(ccc31)-c1cc(O)cc(c1)C[C@H](NC(=O)C1CCCC1C(F)F)C(=O)N1CCC[C@H](N1)C(=O)OCC(C)(C)C2` (stereo partly shown) [Example A261], the IC50 with NCI-H358 (K-Ras G12C), in the experiment on Capan-1 (K-Ras G12V), at KRAS G12S (setting [1]), at KRAS G12C (setting [2]), at NRAS G12C (setting [3]) and on KRAS G13D (setting [4]) was 1000 to 10000 nM throughout. Further, the 50% inhibitory concentration (IC50) at KRAS G13C (setting [5]) is 1000 to 10000 nM; on KRAS G12V (setting [6]), 1000 to 10000 nM; on KRAS G12D (setting [7]), more than 10000 nM; at KRAS WT (setting [8]) it was 1000 to 10000 nM.
Turning to `CCN1C[C@@H](C(=O)N(C)[C@H](C(=O)N[C@H]2Cc3cc(O)cc(c3)-c3ccc4c(c3)c(c(-c3cnccc3COC)n4CC)CC(C)(C)COC(=O)[C@@H]3CCCN(N3)C2=O)C(C)C)CC1=O` [Example A262], the IC50 with NCI-H358 (K-Ras G12C) was 1000 to 10000 nM; with Capan-1 (K-Ras G12V), 1000 to 10000 nM; on KRAS G12S (KRAS G12S FRET data, IC50), 100 to 1000 nM; on KRAS G12C (KRAS G12C FRET data, IC50) it was 10 to 100 nM; against NRAS G12C (NRAS G12C FRET data IC50, NRAS G12C), 100 to 1000 nM; at KRAS G13D (KRAS G13D FRET data IC50, KRAS G13D), 100 to 1000 nM. In addition, the IC50 fell in the range of 100 to 1000 nM on KRAS G13C (KRAS G13C FRET data, IC50); 100 to 1000 nM against KRAS G12V (KRAS G12V FRET data IC50, KRAS G12V); 1000 to 10000 nM on KRAS G12D (KRAS G12D FRET data, IC50); 100 to 1000 nM against KRAS WT (KRAS WT FRET data IC50, KRAS WT).
Take `CCn1c(-c2cccnc2[C@H](C)OC)c2c3cc(ccc31)-c1csc(n1)C[C@H](NC(=O)[C@H](C(C)C)N(C)C(=O)N1CC(N3CCN(C)CC3)C1)C(=O)N1CCC[C@H](N1)C(=O)OCC(C)(C)C2` [Example A288]: the IC50 lay within 10 to 100 nM in the experiment on NCI-H358 (K-Ras G12C); 10 to 100 nM in the experiment with Capan-1 (K-Ras G12V); 100 to 1000 nM at KRAS G12S (setting [1]); 10 to 100 nM on KRAS G12C (setting [2]); 10 to 100 nM on NRAS G12C (setting [3]); 100 to 1000 nM at KRAS G13D (setting [4]). Moreover, the IC50 at KRAS G13C (setting [5]), at KRAS G12V (setting [6]), at KRAS G12D (setting [7]) and on KRAS WT (setting [8]) was 100 to 1000 nM each time.
For the compound `CCn1c(-c2cccnc2[C@H](C)OC)c2c3cc(ccc31)-c1csc(n1)C[C@H](NC(=O)[C@H](C(C)C)N(C)C(=O)N1CCOC3(CN(C)C3)C1)C(=O)N1CCC[C@H](N1)C(=O)OCC(C)(C)C2` [Example A294], the IC50 in the experiment with NCI-H358 (K-Ras G12C) was 10 to 100 nM; in the experiment on Capan-1 (K-Ras G12V), 100 to 1000 nM; at KRAS G12S (setting [1]), 100 to 1000 nM; at KRAS G12C (setting [2]), 100 to 1000 nM; on NRAS G12C (setting [3]), 100 to 1000 nM; on KRAS G13D (setting [4]), 100 to 1000 nM. Further, the 50% inhibitory concentration (IC50) on KRAS G13C (setting [5]), on KRAS G12V (setting [6]), at KRAS G12D (setting [7]) and at KRAS WT (setting [8]) was 100 to 1000 nM throughout.
`CCn1c(-c2cccnc2[C@H](C)OC)c2c3cc(ccc31)-c1csc(n1)C[C@H](NC(=O)[C@H](C(C)C)N(C)C(=O)N1CCN(C)C3(CC3)C1)C(=O)N1CCC[C@H](N1)C(=O)OCC(C)(C)C2` [Example A311]: the concentration for half-maximal inhibition (IC50) is 10 to 100 nM in the experiment with NCI-H358 (K-Ras G12C); 100 to 1000 nM in the experiment with Capan-1 (K-Ras G12V); 100 to 1000 nM on KRAS G12S (setting [1]); 100 to 1000 nM on KRAS G12C (setting [2]); 100 to 1000 nM on NRAS G12C (setting [3]); 100 to 1000 nM on KRAS G13D (setting [4]). In addition, the IC50 at KRAS G13C (setting [5]), at KRAS G12V (setting [6]), at KRAS G12D (setting [7]) and on KRAS WT (setting [8]) was 100 to 1000 nM throughout.

These data come from patent US20230233569A1 (Revolution Medicines, Inc., priority 2020, published 2023).
